Results reported in US20070054887A1, “Methods for treating bladder dysfunction” (BioXell S.p.A, priority 2003, published 2007).

Columns and labels:
hBC [1] = assay: DNA fragmentation / apoptotic index in hBC by in situ end labelling (ISEL); conditions: Compound A 10 nM, alone and in the presence of KGF (10 ng/ml) or testosterone (10 nM); FIG. 7
BOO rats = assay: bladder outlet obstruction (BOO) rat model: cystometry and bladder weight; format: in vivo, Sprague-Dawley rats; conditions: 150 ug/kg/daily over 2 weeks
Experimental: Female Sprague-Dawley rats, weighing 200-250 g
Group A: BOO rats, treated with the vitamin D analogue over 2 weeks, beginning at day 1 after creation of the obstruction (n=12)
Group B: BOO rats, treated with vehicle over 2 weeks, beginning at day 1 after creation of the obstruction (n=12)
Group C: Sham operated rats, treated with the vitamin D analogue over 2 weeks, beginning at day 1 after surgery (n=12)
a) Cystometry (˜18 hours after last administration of the drug/vehicle, 12 hours after removal of the obstructing ligature) under conscious conditions.
The bladder and urethrovesical junction were exposed through a lower abdominal midline incision. A 0.9 mm metal rod was placed alongside the proximal urethra and a 3-0 silk ligature was tied tightly around the urethra and the rod, which was consequently removed. Sham surgery was performed accordingly, without placing the ligature. After 13 days the ligature was removed and a catheter was inserted into the bladder dome and tunneled subcutaneously.
The following morning after insertion of the catheter, the cystometric investigation was performed without any anesthesia or restraint in a metabolic cage. The amount of voided urine was measured by means of a fluid collector, connected to a force displacement transducer. The bladder was continuously filled with saline at room temperature. The catheter was also connected to a pressure transducer. After a stabilization period of 30-60 minutes, when reproducible voiding patterns are achieved, the following parameters were recorded over a period of 30 min: Basal bladder pressure, micturition pressure, threshold pressure, micturition interval and volume, and non-voiding contractions. The amount of residual urine was investigated manually 3 times, at the end of the cystometry. Bladder capacity was calculated based on the measured values.
The validated bladder outlet obstruction rat model described above was used to test the ability of vitamin D3 analogues to control and treat bladder dysfunction. The objective was to evaluate whether a vitamin D3 analogue (1-alpha-fluoro-25-hydroxy-16,23e-diene-26,27-bishomo-20-epi-cholecalciferol-Compound “A”) at the dose of 150 ug/kg/daily can prevent bladder hypertrophy and bladder dysfunction such as bladder overactivity.
In this model a ligature was surgically placed around the outlet of the catheterized bladder, so that when the catheter was removed, the bladder experienced increased urethral resistance. The rats underwent continuous cystometry to evaluate bladder function. In addition the contractile properties of isolated bladder preparation in response to nerve stimulation and exogenous stimuli in vitro were investigated under electrical field stimulation (EFS).

hBC [2] = assay: androgen-stimulated hBC growth, 48 h incubation; format: cell-based, human; conditions: DHT 10 nM, Compound A 1 nM, finasteride 1 nM, FIG. 5
Description: Results are expressed as percentage variation (mean±SEM) over their relative controls and derived from at least three different experiments obtained from three distinct hBC cell preparations. *P<0.05 (vs. control); °P<0.01 (vs. androgen-treated cells).

vimentin = vimentin gene and protein expression in serum-starved hBC; format: cell-based, human; conditions: 10 nM, at any time point tested; FIG. 13
Experimental: Vimentin was detected (mRNA and protein) as per the method for desmin described in Example 1B. Vimentin is a fibroblastic cell marker. Quantitative analysis using real-time RT-PCR of vimentin mRNA expression in serum-starved hBC treated with Compound A (10 nM) was examined at different time points (2-12 days). Results are derived from five different experiments from three distinct hBC preparations and are expressed as fold increase compared to time zero. Control, open columns; Compound A, grey columns.
Western blot detection of vimentin in hBC was performed as follows: Thirty ug of proteins were separated by 10% SDS-PAGE, transferred onto nitrocellulose membrane, and probed with anti-vimentin antibody (1:1000). A band of about 61 kDa was detected in each sample of hBC. […] Results are representative of three independent experiments performed using separate hBC preparations.
Immunocytochemical detection of vimentin in hBC was conducted as follows: Cells were seeded onto sterile glasses, treated with Compound A (10 nM) and processed at the indicated time points with an anti-vimentin antibody (1:1000). […] Quantification of three separate experiments from three distinct preparations of hBC is shown in FIG. 15 (control, open columns; Compound A, grey columns). […]

desmin = desmin gene and protein expression in serum-starved hBC; format: cell-based, human; conditions: 10 nM
Experimental: To detect desmin both at gene or protein level hBC cells were seeded in their growth medium onto 10 mm diameter culture dishes or onto sterile glass slides (about 10^4 cells/ml), for mRNA or immunocytochemical analysis, respectively. hBC cells at about 30% confluency, after overnight starvation in serum-free medium were incubated in phenol red- and serum-free medium containing 0.1% BSA with or without Compound A (10^−8 M) for 2, 4, 8 and 12 days, and the medium was changed every 2 days. Cells were harvested for mRNA or protein analysis by Taqman or Western blot analysis, respectively, and the slides were processed for specific protein immunocytochemical detection Quantitative analysis using real-time RT-PCR of desmin mRNA expression in serum-starved hBC treated with Compound A (10 nM, grey columns) was examined at different time points (2-12 days). Results are derived from five different experiments from three distinct hBC preparations and are expressed as fold increase compared to time zero. *P≦0.01 or °P=0.04 vs. control, open columns and are shown in FIG. 8.
Western blot detection of desmin in hBC was conducted as follows: thirty μg of proteins were separated by 10% SDS-PAGE, transferred onto nitrocellulose membrane, and probed with anti-desmin antibody (1:1000). A band of about 58 kDa was detected in each sample of hBC. […]

[3] = system: rats with CYP-induced cystitis; assay: cyclophosphamide (CYP) induced chronic cystitis in rats: conscious cystometry; format: in vivo, Wistar rats; conditions: 30 and 75 ug/kg, control v Comp A
[4] = maximum tolerated dose (MTD) in rats; format: in vivo; conditions: rat, in vivo, read-out: MTD
Description: The maximum tolerated dose (MTD) in rats is also listed for each compound.

human bladder cells = assay: inhibition of basal human bladder cell growth; format: cell-based; conditions: Homo sapiens

Which results are given for `C=C1/C(=C\C=C2/CCC[C@]3(C)C([C@@H](C)C/C=C/C(O)(CC)CC)=CC[C@@H]23)C[C@@H](O)C[C@@H]1F` [Compound A, 1-alpha-fluoro-25-hydroxy-16,23E-diene-26,27-bishomo-20-epi-cholecalciferol]?
apoptotic index (hBC [1]): significantly increases; spontaneous non-voiding contraction amplitude (BOO rats; versus vehicle): significant differences versus vehicle; spontaneous non-voiding contraction frequency (BOO rats; versus vehicle): significant differences versus vehicle; micturition pressure (BOO rats; versus vehicle, FIG. 19): significant differences versus vehicle; bladder weight (BOO rats; FIG. 16): slight decrease; residual urine (BOO rats; FIG. 20): absent; hBC proliferation stimulated by the androgen DHT (hBC [2]): inhibits; vimentin protein expression (Western blot) (vimentin): failed to affect; desmin protein expression (Western blot) (desmin; at any time point tested (2-12 days), FIG. 9): decreased; serum starvation-induced progressive increase in desmin expression (desmin; mRNA and protein, FIGS. 8-11): almost completely counteracted; bladder capacity ([3]; FIG. 23): increase; non-voiding bladder contractions ([3]; FIG. 24): decrease; MTD [4]: 0.1 mg/kg; IC50 (human bladder cells): 6.31 pM
